According to patent US20230181564A1, “Potent Tetrahydroquinolone Eliminates Apicomplexan Parasites” (The University of Chicago, priority 2020, published 2023):

How the values were obtained:
[1] = system: T. gondii mitochondrial membrane potential (cytochrome bc); test: Mitochondrial membrane potential by the safranine method (T. gondii, compared with HFF); assay type: cell-based, Toxoplasma gondii; settings: permeabilized tachyzoites, safranin O
Method: T.gondii and HFF Mitochondrial Membrane Potential Measurements—the mitochondrial membrane potential was measured by the safranine method according to Vercesi et al, 1998). Freshly egressed T. gondii tachyzoites were filtered and washed twice with intracellular buffer (125 mM sucrose, 65 mM KCl, 10 mM HEPES-KOH buffer, pH 7.2, 1 mM MgCl2 and 2.5 mM potassium phosphate). After washing, the parasites were resuspended in the same buffer at 10^9/ml. An aliquot of 50 μL of this suspension was added to a cuvette containing Safranin 0, 2.5 μM and Succinate 1 mM in final volume of 2 mL of the intracellular buffer. The fluorescence was measured with a Hitachi 7000 spectrofluorometer with setting Ex. 495/Em. 586. Once the baseline fluorescence is testable, 30 μM digitonin was added to permeabilize the parasites. 85 seconds after permeabilization, the THQ derivatives, dissolved in DMSO, were added. 5 μM of FCCP (Carbonyl cyanide-4-(trifluoromethoxy) phenylhydrazone) was used as an uncoupler reference for calculations and its effect was considered 100%. Similar conditions for measuring the mitochondrial potential of mammalian cells were used with the following changes: the mammalian cells were re-suspended at 10^8/ml. 50 μl of mammalian cells was also used for each run in a cuvette with […]. The substrate used for mammalian cells was 5 mM glutamate and 5 mM malate. A higher concentration of digitonin (50 μM) was used to permeabilize the mammalian cells. The compounds were added at about 400 seconds after permeabilization. Each experiment was repeated at least three times in duplicates. Statistical analysis, unpaired student t test, was performed using GraphPad Prism 8.0 (GraphPad Software, Inc., San Diego, Calif.).
Mitochondrial membrane potential measurements were performed with permeabilized T.gondii tachyzoites in suspension using safranin O, which loads into polarized membranes. T. gondii tachyzoites were permeabilized with digitonin to allow the mitochondrial substrate succinate to cross the membrane and energize the mitochondrion. The fluorescence of safranin O, which loads into energized mitochondria was used to measure the membrane potential. The energized state of the mitochondrion is observed by a decrease in fluorescence (FIGS. 3A,C,E). Trifluoromethoxy carbonylcyanide phenylhydrazone (FCCP) was used to depolarize the membrane, which causes the fluorescence to go up as shown in FIG. 3A. JAG21 depolarized the membrane potential even at concentrations as low as 2 nM (FIG. 3C,D). JAG21 and Atovaquone had similar effects on the mitochondrial membrane potential (FIG. 3D). […] The effect of these THQ compounds against the T. gondii mitochondrial membrane potential was greater than the effect on the human foreskin fibroblast membrane potential (FIG. 3E,F). […]

[2] = target: T1, P. falciparum bc1 complex cytochrome c reductase (Pfbc1) (Plasmodium falciparum, UniProt Q02768); test: Pfbc1 native assay (cytochrome c reduction by parasite extract); assay type: biochemical; settings: atovaquone 1 μM positive control, mean±S.D., N=4
T1 construct: Parasite extract was then prepared by disruption with a sonicating probe; endogenous in cells; host or cells: P. falciparum 3D7 blood-stage parasites freed by saponin, sonicated extract
T1 sequence (Q02768 1-376): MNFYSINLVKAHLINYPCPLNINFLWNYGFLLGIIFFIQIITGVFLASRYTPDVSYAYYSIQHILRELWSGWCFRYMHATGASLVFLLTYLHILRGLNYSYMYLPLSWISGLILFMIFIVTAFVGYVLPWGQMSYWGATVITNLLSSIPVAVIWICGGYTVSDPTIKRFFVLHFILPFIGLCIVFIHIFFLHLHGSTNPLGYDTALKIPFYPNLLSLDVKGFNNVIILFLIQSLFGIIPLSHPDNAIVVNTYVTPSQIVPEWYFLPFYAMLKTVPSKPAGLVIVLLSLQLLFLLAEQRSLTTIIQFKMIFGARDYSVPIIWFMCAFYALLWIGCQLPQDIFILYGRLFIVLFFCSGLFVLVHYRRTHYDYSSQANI
Method: Enzyme assays. P. falciparum 3D7 strain were obtained from the Liverpool School of Tropical Medicine. Protease cocktail inhibitor was obtained from Roche. Bradford protein assay dye reagent was obtained from Bio-Rad. All other reagents were obtained from Sigma-Aldrich. Decylubiquinol was produced as per Fisher et al. (2009). In brief, 25 mg of decylubiquinone were dissolved in 400 μl of nitrogen-saturated hexane. An equal volume of aqueous 1 M sodium dithionite was added, and the mixture vortexed until colorless. […] Concentrations of decylubiquinol was determined spectrophotometrically on a Cary 300 Bio UV/visible spectrophotometer (Varian, UK) from absolute spectra, using ε288-320=8.1 mM-1·cm^−1. […]
The protocol for the preparation of parasite extract was adapted from Fisher et al. Free parasites were prepared from infected erythrocytes pooled from five T75 flasks, by adding 5 volumes of 0.15% (w/v) saponin in phosphate-buffered saline (137 mM NaCl, 2.7 mM KCl, 1.76 mM K2HPO4, 8.0 mM Na2HPO4, 5.5 mM D-glucose, pH 7.4) for 5 min, followed by three washes by centrifugation in RPMI containing HEPES (25 mM), and a final resuspension in potassium phosphate buffer (50 mM K2HPO4, 50 mM KH2PO4, 2 mM EDTA, pH7.4) containing a protease inhibitor cocktail (Complete Mini; Roche). […] The protein concentration of the parasite extract was determined by Bradford protein assay (Bio-Rad). […]

Cc1[nH]c2c(c(=O)c1-c1ccc(Oc3ccc(OC(F)(F)F)cc3)cc1)CCCC2 [JAG021, 2-methyl-3-(4-(4-(trifluoromethoxy)phenoxy)phenyl)-5,6,7,8-tetrahydroquinolin-4-one]
Concentration depolarizing the T. gondii mitochondrial membrane potential [1]: ≤ 2 nM
inhibition at 1 µM [2]: 86.4 ± 3.2%
